The source of these data is patent US9938292B2 (GUANGDONG ZHONGSHENG PHARMACEUTICAL CO., LTD, priority 2014, dated 2018).

Usually IC50 stands for the concentration that inhibits the measured activity by half.

In the experiment the test system is Hedgehog signaling pathway. Briefly: Gli-Luc luciferase reporter gene assay in C3H10T1/2/Gli-Luc cells under Shh-N stimulation. Format: cell-based. Particulars: Mus musculus, C3H 10T1/2, 24 h, luciferase RLU, read-out: biological activity: IC50 of the inhibitory activities of compounds on the hedgehog pathway. The source says:
The luciferase (Gli-Luc) reporter gene with Gli response element was transfected into C3H10T1/2 cells, under Shh-N stimulation conditions, determine the Hedgehog signaling pathway inhibitors through the detection of gene expression in cell activity report. In this study, we evaluated the inhibitory effects of compounds on Hedgehog signaling pathway in the IC50 value of the compound as an index.
Cell lines: C3H10T1/2/Gli-Luc stable cell line • C3H10T1/2/Gli-Luc Cell culture medium (DMEM/high glucose HyClone, #SH30022.01B; 10% serum Hyclone, #SV30087; 0.4% Hygromycin B Roche, #13398200) • 0.25% Trypsin-EDTA (Gibco, #25200)
Shh-N, HEK293/SHH-N stable cell culture supernatant
Inoculate the logarithmic growth phase of C3H10T1/2/Gli-Luc cells into a 96-well culture plate with 20000 cells per well, cells were cultured in a 37° C., 5% CO2 incubator overnight. The next day, the compounds were diluted in the following ways: the positive compound GDC0449 (1 mM) and the compounds (1 mM) to be measured were serially diluted to 7 concentrations by DMSO according to 1:3 and 1:10 respectively, the eighth is for DMSO control, and then diluted with fresh medium 100 times. The medium of the cells cultured overnight was removed, 80 μL fresh culture medium was added per well, then 20 μL gradiently diluted positive compound and compounds to be measured and 100 μL 30 nM Shh-N containing conditioned medium were added, each concentration repeated 2 wells, at the same time, positive and negative reference well were set (i.e. Shh Ctrl: 80 μL fresh medium+20 μL 1% DMSO containing medium+100 μL 30 nM Shh-N containing conditioned medium; Unstimulated Ctrl: 180 μL fresh medium+20 μL 1% DMSO containing medium), cells were cultured in the incubator for further 24 h.
Intracellular luciferase activity detection: take the cells out of 96-well plate, discard the culture medium, the cells were washed with PBS twice, then each well added with 20 μL lysate (Promega E1531), oscillate pyrolysis at room temperature for 30 min. 5 μL cell lysates were transferred to 384-well plate (Greiner 781074), then each well was added with 25 μL luciferase reaction liquid (Promega E1501), after rapid mixed, immediately placed into the VarioSkan Flash multi-function reading instrument to read the relative light units (RLU) value.
Data analysis: using Prism's GraphPad 5 for data analysis. RLU reading to the logarithmic mapping of compound concentration on behalf of luciferase activity, and then curve fitting using the following equation to give IC50 value, Y (RLU)=minimum+(maximum−minimum)/(1+10^(log of compound concentration−Log IC50)).
On to `COc1c(-c2ccc(N3C[C@@H](C)O[C@@H](C)C3)cc2)cnc2c(-c3ccncc3)cccc12` [Embodiment 97], for which the IC50 fell in the range of 0.1 to 0.5 µM.
With `Cc1cn(-c2ccc(N3C[C@@H](C)O[C@@H](C)C3)cc2)c(=O)c2cccc(-c3ccc(Br)cc3)c12` [Embodiment 65], the 50% inhibitory concentration (IC50) was 0.5 to 1 µM.
With `C[C@@H]1CN(c2ccc(-c3c([O-])c4cccc(-c5ccc(C#N)cc5)c4n[n+]3C)cc2)C[C@H](C)O1` [Embodiment 150, 8-(4-cyanophenyl)-3-(4-((2R,6S)-2,6-dimethylmorpholino)phenyl)-2-methylcinnolin-2-ium-4-olate] the figure was 0.5 to 1 µM; with `COc1c(-c2ccc(N3C[C@@H](C)O[C@@H](C)C3)cc2)cnc2c(-c3ccc(S(C)(=O)=O)cc3Cl)cccc12` [Embodiment 103], 0.05 to 0.1 µM.
The result for `CC(=O)N1C(C)CN(c2ccc(-n3cc(C)c4c(-c5ccc(C#N)cc5)cccc4c3=O)cc2)CC1C` (stereo not drawn) [Embodiment 22] reads 0.05 to 0.1 µM; that for `CCOC(=O)N1[C@H](C)CN(c2ccc(-c3cnc4c(-c5ccc(C#N)cc5)cccc4c3OC)cc2)C[C@@H]1C` [Embodiment 183], 0.05 to 0.1 µM.
Consider `COc1c(NC(=O)c2ccc(N3C[C@@H](C)O[C@@H](C)C3)nc2)cnc2c(-c3ccc(C#N)cc3)cccc12` [Embodiment 241, N-(8-(4-cyanophenyl)-4-methoxyquinolin-3-yl)-6-(2,6-dimethylmorpholino-4-yl) nicotinamide], for which the IC50 lay in the range of 0.1 to 0.5 µM.
The result for `COc1c(N2CCN(c3cc(C)nc(C)c3)CC2)cnc2c(-c3ccc(C#N)cc3)cccc12` [Embodiment 217, 4-(3-(4-(2,6-dimethylpyridin-4-yl)piperazin-1-yl)-4-methoxyquinolin-8-yl)benzonitrile] reads 0.1 to 0.5 µM; that for `CCc1c(-c2ccc(N3C[C@@H](C)O[C@@H](C)C3)nc2)cnc2c(-c3ccc(C#N)cc3)cccc12` [Embodiment 133], not above 0.05 µM.
The result for `COc1c(-c2ccc(N3C[C@@H](C)N(C(=O)CC(F)(F)F)[C@@H](C)C3)nc2)cnc2c(-c3ccc(C#N)cc3)cccc12` [Embodiment 197] reads 0.5 to 1 µM; that for `Cc1cn(-c2ccc(N3CCOC(CN(C)C)C3)cc2)c(=O)c2cccc(-c3ccc(C#N)cc3)c12` (stereo not drawn) [Embodiment 9], 1 to 5 µM.
The result for `COc1c(-c2ccc(N3C[C@@H](C)N(C(=O)c4ccncc4)[C@@H](C)C3)cc2)cnc2c(-c3ccc(C#N)cc3)cccc12` [Embodiment 201] reads not above 0.05 µM; that for `COC(=O)N1[C@H](C)CN(c2ccc(-c3cnc4c(-c5ccc(C#N)cc5)cccc4c3OC)cn2)C[C@@H]1C` [Embodiment 196], 0.1 to 0.5 µM.
In the case of `Cc1cn(-c2ccc(N3CC(C)N(C(=O)OC(C)C)C(C)C3)cc2)c(=O)c2cccc(-c3ccc(C#N)cc3)c12` (stereo not drawn) [Embodiment 29], the IC50 is 0.1 to 0.5 µM.
Take `Cc1cn(-c2ccc(N3C[C@@H](C)O[C@@H](C)C3)cc2)c(=O)c2cccc(-c3ccc(C#N)nc3)c12` [Embodiment 56]: the IC50 is 0.5 to 1 µM.
With `COc1c(N2CCN(c3ccc(C(C)C)cn3)CC2)cnc2c(-c3ccc(C#N)cc3)cccc12` [Embodiment 270, 4-(3-(4-(5-isopropylpyridin-2-yl)-3-)-4-methoxyquinolin-8-yl) benzonitrile] the figure was 0.05 to 0.1 µM; with `Cc1cn(-c2ccc(N3CC4CCC(C3)O4)cc2)c(=O)c2cccc(-c3ccc(C#N)cc3)c12` [Embodiment 7], 0.5 to 1 µM.
The result for `Cc1c(-c2ccc(N3C[C@@H](C)O[C@@H](C)C3)cc2)cnc2c(-c3ccc(C#N)cc3)cccc12` [Embodiment 122] reads 0.05 to 0.1 µM; that for `C[C@@H]1CN(c2ccc(-c3cnc4c(-c5ccc(C#N)cc5)cccc4c3N(C)C)cc2)C[C@H](C)O1` [Embodiment 119, 4-(4-(dimethylamino)-3-(4-((2S,6R)-2,6-dimethylmorpholino)phenyl)quinolin-8-yl) benzonitrile], 0.05 to 0.1 µM; that for `COc1c(-c2ccc(N3C[C@@H](C)O[C@@H](C)C3)c(C)c2)cnc2c(-c3ccc(C#N)cc3)cccc12` [Embodiment 174], 0.1 to 0.5 µM.
With `COc1c(-c2ccc(N3C[C@@H](C)O[C@@H](C)C3)cc2)cnc2c(-c3ccc(C#N)cc3)ccnc12` [Embodiment 147, 4-(7-(4-((2S,6R)-2,6-dimethylmorpholino)phenyl)-8-methoxy-1,5-naphthyridin-4-yl) benzonitrile] the figure was 0.1 to 0.5 µM; with `COc1c(-c2ccc(N3C[C@@H](C)O[C@@H](C)C3)cc2)cnc2c(-c3ccc(Cl)nc3)cccc12` [Embodiment 95], not above 0.05 µM; with `COc1c(N2CCN(C(=O)Nc3ccncc3)CC2)cnc2c(-c3ccc(C#N)cc3)cccc12` [Embodiment 209], not above 0.05 µM.
As to `CS(=O)(=O)CCC(=O)N1CCN(c2cnc3c(-c4ccc(C#N)cc4)cccc3c2C2CC2)CC1` [Embodiment 267, 4-(4-cyclopropyl-3-(4-(3-(methylsulfonyl)-3-propanoyl))quinolin-8-yl) benzonitrile], the IC50 is not above 0.05 µM.
The result for `CCC(=O)N1[C@H](C)CN(c2ccc(-c3nnc4c(-c5ccc(C#N)cc5)cccc4c3OC)cn2)C[C@@H]1C` [Embodiment 151, 4-(3-(6-(3,5-dimethyl-4-propionylpiperazin-1-yl)pyridin-3-yl)-4-methoxycinnolin-8-yl)benzonitrile] reads not above 0.05 µM; that for `COc1c(-c2ccc(N3C[C@@H](C)O[C@@H](C)C3)cc2)cnc2c(-c3ccc(Cl)c(Cl)c3)cccc12` [Embodiment 98], not above 0.05 µM; that for `COc1ccc(-c2cccc3c(OC)c(-c4ccc(N5C[C@@H](C)O[C@@H](C)C5)cc4)cnc23)cn1` [Embodiment 100], 0.1 to 0.5 µM.
Turning to `COc1c(-c2ccc(N3C[C@@H](C)N(c4nccs4)[C@@H](C)C3)nc2)cnc2c(-c3ccc(C#N)cc3)cccc12` [Embodiment 206, 4-(3-(6-((3S,5R)-3,5-dimethyl-4-(thiazol-2-yl)piperazin-1-yl)pyridin-3-yl)-4-methoxyquinolin-8-yl)benzonitrile], the IC50 is not above 0.05 µM.
With `C[C@@H]1CN(c2ccc(-c3cnc4c(-c5ccc(C#N)cc5)cccc4c3S(C)(=O)=O)cc2)C[C@H](C)O1` [Embodiment 120, 4-(3-(4-((2S,6R)-2,6-dimethylmorpholino)phenyl)-4-(methylsulfonyl)quinolin-8-yl) benzonitrile] the figure was 0.5 to 1 µM.
The result for `COc1c(-c2ccc(N3C[C@@H](C)O[C@@H](C)C3)nc2)cnc2c(-c3ccccc3)cccc12` [Embodiment 162] reads not above 0.05 µM; that for `CC(C)(O)c1ccc(N2CCC3(CC2)CCN(c2cnc4c(-c5ccc(C#N)cc5)cccc4c2C2CC2)CC3)nc1` [Embodiment 256, 4-(4-cyclopropyl-3-(9-(5-(2-hydroxypropan-2-yl)pyridin-2-yl)-3,9-diazaspiro[5.5]undecan-3-yl)quinolin-8-yl)benzonitrile], 0.1 to 0.5 µM; that for `COc1c(N2CCN(C(=O)C3CC3)CC2)cnc2c(-c3ccc(C#N)cc3)cccc12` [Embodiment 248, 4-(3-(4-cyclopropanecarbonylpiperazin-1-yl)-4-methoxyquinolin-8-yl)benzonitrile], not above 0.05 µM.
The result for `CCC(=O)N1[C@@H]2CC[C@H]1CN(c1ccc(-c3cnc4c(-c5ccc(C#N)cc5)cccc4c3OC)cn1)C2` [Embodiment 205, 4-(4-methoxy-3-(6-(8-propionyl-3,8-diazabicyclo[3.2.1]octan-3-yl)pyridin-3-yl)quinolin-8-yl)benzonitrile] reads 0.05 to 0.1 µM.
